Entries after “also recorded” stand apart in the source; their conditions may differ. Peptide text beside a SMILES is read from it. * marks the point of attachment. Cbz = O=C(OCc1ccccc1)*
How the values were obtained:
SCA7 KI mice [1] = experiment: Beam walking test in SCA7 knock-in mice; assay type: in vivo; conditions: 10.000 Units i.p. 3 times a week from 5 weeks of age; effect from 12 weeks of age, p inf to 0.005
Description: This test was performed each week, with 3 sessions per animal (maximal time 1 min.). The number of errors made on the wooden beam by each mouse, and the traveled total distance were noted. A mean of the 3 assays was calculated.
(§1) The inventors use the Spinocerebellar ataxia 7 (SCA7) knock-in mouse model developed in Huda Zhoghbi's lab (Yoo et al, 2003). This mouse model SCAT 266Q/5Q reproduces features of an infantile SCAT disease. The phenotype begins at 5 weeks of age with weight loss and then visual impairment. At about 8 weeks their locomotor functions are affected, and by 13-14 weeks of age the ataxic phenotype is severe with tremor, gait ataxia, muscular mass loss, kyphosis. The mice die between 14 and 19 weeks of age. In this severely affected mice model the inventors undertook to test a treatment with murine beta-IFN (Sigma).
Protocol: 3 injections (intraperitoneally) per week, each of 10.000 Units murine beta IFN per mouse (from Sigma). Starting at 5 weeks of age, and during 10 weeks or more, until the animals die. […]
The mouse is placed at the end of the beam, at segment number 1 and the task is to walk towards the box placed at the other end. […] During the task, the inventors carefully monitored the numbers of errors done with the paws on the beam (front or rear paws). The ratio number of errors/distance traveled (EID) is calculated for each animal.

SCA7 KI mice [2] = experiment: Locotronic test in SCA7 knock-in mice; assay type: in vivo; conditions: treated KI versus untreated KI
Description: Mice have been subjected to crossing the Locotronic apparatus, each week, 3 sessions with 15 min pause between sessions. FIG. 7A indicates the time in seconds for crossing the Locotronic and FIG. 7B indicates the numbers of errors (front paws, rear paws) made by the mice during the task. A mean value was calculated for the 3 sessions, for each group of animals.
as §1, with “(Sigma). […]” for “(Sigma).”
The Locotronic is designed to evaluated fine motor coordination in mice crossing the apparatus. […] On the side of the apparatus there are infra red sensors which measure errors made with front paws and rear paws (differentially scored). […] All the errors detected by the sensors are saved in a file as well as the time needed for crossing. […]

SCA7 KI mice [3] = experiment: Life time of SCA7 knock-in mice; assay type: in vivo
Excerpt: as §1
(§2) Protocol: 3 injections (intraperitoneally) per week, each of 10.000 Units murine beta IFN per mouse (from Sigma). Starting at 5 weeks of age, and during 10 weeks or more, until the animals die.

[4] = test system: wild type mice (C57 black6); experiment: Toxicity of beta-IFN injection protocol in wild type mice; assay type: in vivo; conditions: 10.000 Units per mouse, 3 injections per week intraperitoneally, 12 weeks, versus saline
Excerpt: as §2
The inventors first tested the toxicity of such a treatment, as no publication described a treatment of young animals with IFN. In adult mice affected by multiple sclerosis and receiving injections of beta-IFN, the doses were 10.000 Units per mouse, over 14 weeks. The inventors chose to use the same doses and tested toxicity of the protocol in wild type mice of the same strain (C57 black6) than the KI mice, during 12 weeks. […] The inventors concluded that the dose used was not toxic, and decided to use 10.000 Units, 3 times a week, in the SCAT mouse model.

proteasome = experiment: Proteasome inhibition by MG132 in COS-7 cells, Western blot of ATXN7; assay type: cell-based
Description: (§3) Cell culture, transfections, MG132, INF and cadmium treatments: COS-7 cells were maintained in DMEM (Invitrogen) supplemented with 5% FBS, and penicillin-streptomycin (100 UI/ml; 100 μg/ml). Cell lines were transfected with Lipofectamine-PLUS reagents (Invitrogen) as prescribed. […] Recombinant human Interferon beta (Hu-IFN-b) is obtained from human fibroblast mRNA expressed in E. Coli. Its molecular weight is approximately 20 kDa. Recombinant human Interferon beta was supplied as a solution at 1×10^6 units/ml in PBS (phosphate buffered saline) containing 0.1% BSA (bovine serum albumin) and 10% glycerol. It was purchased from Sigma-Aldrich. Recombinant human Interferon beta (2000 UI/ml) was added to the culture medium after plating and during transfection. Cadmium chloride (Cadmium chloride hemi pentahydrate, Sigma Aldrich) (from 0.25 μM to 2 μM) was added during transfection. For proteasome inhibition, 5 μM MG132 was applied for 12 h, 25 h post-transfection. Cultures of post-mitotic neurons were prepared from the cortex of embryonic day 16 Wistar rats. Cells were extracted from the embryos and cultured with 1 μM MK801. Glial cell proliferation was stopped by adding 1 μM cytosine arabinoside after 3 h. Primary cultures of cortical neurons were transfected 96 h after plating using Lipofectamine 2000 reagent (Invitrogen) according to the manufacturer's instructions.
Western blot and filter retardation assay: Cells were harvested in PBS, pelleted and lysed 30 min on ice in lysis buffer containing 50 mM Tris pH 8.8, 100 mM NaCl, 5 mM MgCl2, 0.5% NP40, 1 mM EDTA and 250 UI/ml benzonase (Merck) supplemented with a cocktail of protease inhibitors (Complete and Pefabloc, Roche). Total extracts were centrifuged at 13000 rpm for 10 min at 4° C. to separate soluble proteins from aggregates and membranes. Supernatants (30 μg protein) were analyzed by Western blot. Pellets were washed with PBS and further incubated 30 min on ice in a pellet buffer containing 20 mM Tris pH 8.0, 15 mM MgCl2 and 250 UI/ml benzonase. Protein concentrations (supernatant and pellet) were determined by Bio-Rad assay. […]

mutant ATXN7 aggregates = experiment: Filter retardation assay of SDS-insoluble material in COS-7 cells; assay type: cell-based; conditions: 0.25 to 2 μM cadmium, filter assay on pellet fraction
Description: as §3, with “For proteasome inhibition, 5 μM MG132 was applied for 12 h, 25 h post-transfection. Cultures of post-mitotic neurons were prepared from the cortex of embryonic day 16 Wistar rats. Cells were extracted from the embryos and cultured with 1 μM MK801. Glial cell proliferation was stopped by adding 1 μM cytosine arabinoside after 3 h. Primary cultures of cortical neurons were transfected 96 h after plating using Lipofectamine 2000 reagent (Invitrogen) according to the manufacturer's instructions.” left out
Western blot and filter retardation assay: Cells were harvested in PBS, pelleted and lysed 30 min on ice in lysis buffer containing 50 mM Tris pH 8.8, 100 mM NaCl, 5 mM MgCl2, 0.5% NP40, 1 mM EDTA and 250 UI/ml benzonase (Merck) supplemented with a cocktail of protease inhibitors (Complete and Pefabloc, Roche). […] Supernatants (30 μg protein) were analyzed by Western blot. […] Protein concentrations (supernatant and pellet) were determined by Bio-Rad assay. […]

endogenous PML bodies = experiment: Immunofluorescence of endogenous PML bodies in cadmium-treated cells expressing FL-74Q; assay type: cell-based; conditions: 2 μM cadmium
Description: Cell culture, transfections, MG132, INF and cadmium treatments: COS-7 cells were maintained in DMEM (Invitrogen) supplemented with 5% FBS, and penicillin-streptomycin (100 UI/ml; 100 μg/ml). Cell lines were transfected with Lipofectamine-PLUS reagents (Invitrogen) as prescribed. Unless otherwise specified, cells were harvested or analyzed by immunofluorescence 40-45 h post-transfection. β-INF. Recombinant human Interferon beta (Hu-IFN-b) is obtained from human fibroblast mRNA expressed in E. Coli. Its molecular weight is approximately 20 kDa. Recombinant human Interferon beta was supplied as a solution at 1×10^6 units/ml in PBS (phosphate buffered saline) containing 0.1% BSA (bovine serum albumin) and 10% glycerol. It was purchased from Sigma-Aldrich. Recombinant human Interferon beta (2000 UI/ml) was added to the culture medium after plating and during transfection. Cadmium chloride (Cadmium chloride hemi pentahydrate, Sigma Aldrich) (from 0.25 μM to 2 μM) was added during transfection. For proteasome inhibition, 5 μM MG132 was applied for 12 h, 25 h post-transfection. Cultures of post-mitotic neurons were prepared from the cortex of embryonic day 16 Wistar rats. Cells were extracted from the embryos and cultured with 1 μM MK801. Glial cell proliferation was stopped by adding 1 μM cytosine arabinoside after 3 h. […]

[5] = 5 μM MG132, COS-7 cells, Western blot

Compound: beta-IFN: murine beta-IFN (Sigma) injected intraperitoneally in mice
- locomotor coordination (ratio number of errors/traveled distance) (SCA7 KI mice [1]): improves the locomotor coordination
- time for crossing the Locotronic (SCA7 KI mice [2]; 10.000 Units i.p. 3 times a week from 5 weeks of age): slower than the beta-interferon treated KI
- number of errors in the Locotronic (SCA7 KI mice [2]; 10.000 Units i.p. 3 times a week, at 14 weeks of age): tendency for the treated KI to make less errors
- mean life time (SCA7 KI mice [3]; 10.000 Units i.p. 3 times a week from 5 weeks of age, untreated SCA7 KI 15.1 weeks): 16.25 weeks
- extension of the life time (SCA7 KI mice [3]; treated versus untreated SCA7 KI mice): 7.5%
- adverse effects [4]: did not observe adverse effects

Compound: CC(C)C[C@@H](C=O)NC(=O)[C@H](CC(C)C)NC(=O)[C@H](CC(C)C)NC(=O)OCc1ccccc1 [MG132] (Cbz-Leu-Leu-Leu-aldehyde)
- amount of mutant ATXN7 FL-74Q coexpressed with PML IV (proteasome; [5]): significantly increases; also recorded: increased
- amount of mutant ATXN7 FL-74Q expressed alone (absence of PML IV) (proteasome; [5]): significantly increases; also recorded: increased
- PML-dependent degradation of ATXN7 induced by β-INF (proteasome; MG132 with β-INF treatment, COS-7 cells): inhibited

Compound: O.O.O.O.O.[Cd+2].[Cd+2].[Cl-].[Cl-].[Cl-].[Cl-] [cadmium, Cadmium chloride hemi pentahydrate]
- aggregation of mutant ATXN7 (mutant ATXN7 aggregates): dose-dependent
- endogenous PML bodies (endogenous PML bodies): totally disrupted
